Where two headings read alike, the source gives them in different places.

Data set [1] addresses wild-type human cardiac sodium channel, hNav1.5 (Homo sapiens, UniProt Q14524). The experiment in a line: Late INa screening assay (late sodium current, PatchXpress whole cell patch clamp). Format: cell-based. The following applies: for inhibition at 10 µM: read-out: Late INa % blk. (In general: The patch-clamp technique gives a direct electrical read-out from membranes.)
The target in the next data set is hERG potassium channel (Homo sapiens, UniProt Q12809). The experiment in a line: hERG screening assay (PatchXpress patch clamp, CHO cell line). A general note: hERG is a cardiac potassium channel; its block is linked to QT prolongation.
Chain of hERG potassium channel (Q12809 whole entry): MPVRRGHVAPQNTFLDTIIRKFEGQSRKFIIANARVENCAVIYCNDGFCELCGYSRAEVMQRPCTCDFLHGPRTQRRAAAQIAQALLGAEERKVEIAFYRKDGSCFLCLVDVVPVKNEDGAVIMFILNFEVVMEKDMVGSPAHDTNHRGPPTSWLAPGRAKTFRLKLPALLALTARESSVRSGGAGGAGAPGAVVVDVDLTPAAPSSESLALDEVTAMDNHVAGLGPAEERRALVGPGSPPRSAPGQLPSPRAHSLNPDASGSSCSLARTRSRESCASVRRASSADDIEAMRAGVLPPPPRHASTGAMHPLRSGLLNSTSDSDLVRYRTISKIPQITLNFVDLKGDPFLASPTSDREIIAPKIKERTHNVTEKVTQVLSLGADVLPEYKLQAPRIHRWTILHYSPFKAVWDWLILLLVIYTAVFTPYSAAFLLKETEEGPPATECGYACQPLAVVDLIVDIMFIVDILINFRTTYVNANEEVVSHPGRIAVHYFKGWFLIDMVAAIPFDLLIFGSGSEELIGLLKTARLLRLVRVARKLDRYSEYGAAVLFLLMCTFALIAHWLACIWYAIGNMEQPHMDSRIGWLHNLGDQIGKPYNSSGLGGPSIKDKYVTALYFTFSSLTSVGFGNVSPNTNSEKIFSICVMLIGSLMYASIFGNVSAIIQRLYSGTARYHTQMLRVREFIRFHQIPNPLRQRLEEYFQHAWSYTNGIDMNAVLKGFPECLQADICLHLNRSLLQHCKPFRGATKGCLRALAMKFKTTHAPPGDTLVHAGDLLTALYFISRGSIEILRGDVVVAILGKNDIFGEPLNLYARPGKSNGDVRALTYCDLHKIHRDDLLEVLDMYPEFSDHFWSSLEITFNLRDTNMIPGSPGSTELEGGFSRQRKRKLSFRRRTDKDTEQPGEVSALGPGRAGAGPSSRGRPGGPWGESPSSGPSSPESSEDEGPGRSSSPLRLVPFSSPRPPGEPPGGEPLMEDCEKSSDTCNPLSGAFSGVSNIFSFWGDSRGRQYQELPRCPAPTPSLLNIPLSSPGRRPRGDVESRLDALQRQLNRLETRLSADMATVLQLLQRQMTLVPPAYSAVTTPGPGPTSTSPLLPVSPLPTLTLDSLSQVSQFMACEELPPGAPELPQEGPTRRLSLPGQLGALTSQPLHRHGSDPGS

Chain of wild-type human cardiac sodium channel, hNav1.5 (Q14524 whole entry): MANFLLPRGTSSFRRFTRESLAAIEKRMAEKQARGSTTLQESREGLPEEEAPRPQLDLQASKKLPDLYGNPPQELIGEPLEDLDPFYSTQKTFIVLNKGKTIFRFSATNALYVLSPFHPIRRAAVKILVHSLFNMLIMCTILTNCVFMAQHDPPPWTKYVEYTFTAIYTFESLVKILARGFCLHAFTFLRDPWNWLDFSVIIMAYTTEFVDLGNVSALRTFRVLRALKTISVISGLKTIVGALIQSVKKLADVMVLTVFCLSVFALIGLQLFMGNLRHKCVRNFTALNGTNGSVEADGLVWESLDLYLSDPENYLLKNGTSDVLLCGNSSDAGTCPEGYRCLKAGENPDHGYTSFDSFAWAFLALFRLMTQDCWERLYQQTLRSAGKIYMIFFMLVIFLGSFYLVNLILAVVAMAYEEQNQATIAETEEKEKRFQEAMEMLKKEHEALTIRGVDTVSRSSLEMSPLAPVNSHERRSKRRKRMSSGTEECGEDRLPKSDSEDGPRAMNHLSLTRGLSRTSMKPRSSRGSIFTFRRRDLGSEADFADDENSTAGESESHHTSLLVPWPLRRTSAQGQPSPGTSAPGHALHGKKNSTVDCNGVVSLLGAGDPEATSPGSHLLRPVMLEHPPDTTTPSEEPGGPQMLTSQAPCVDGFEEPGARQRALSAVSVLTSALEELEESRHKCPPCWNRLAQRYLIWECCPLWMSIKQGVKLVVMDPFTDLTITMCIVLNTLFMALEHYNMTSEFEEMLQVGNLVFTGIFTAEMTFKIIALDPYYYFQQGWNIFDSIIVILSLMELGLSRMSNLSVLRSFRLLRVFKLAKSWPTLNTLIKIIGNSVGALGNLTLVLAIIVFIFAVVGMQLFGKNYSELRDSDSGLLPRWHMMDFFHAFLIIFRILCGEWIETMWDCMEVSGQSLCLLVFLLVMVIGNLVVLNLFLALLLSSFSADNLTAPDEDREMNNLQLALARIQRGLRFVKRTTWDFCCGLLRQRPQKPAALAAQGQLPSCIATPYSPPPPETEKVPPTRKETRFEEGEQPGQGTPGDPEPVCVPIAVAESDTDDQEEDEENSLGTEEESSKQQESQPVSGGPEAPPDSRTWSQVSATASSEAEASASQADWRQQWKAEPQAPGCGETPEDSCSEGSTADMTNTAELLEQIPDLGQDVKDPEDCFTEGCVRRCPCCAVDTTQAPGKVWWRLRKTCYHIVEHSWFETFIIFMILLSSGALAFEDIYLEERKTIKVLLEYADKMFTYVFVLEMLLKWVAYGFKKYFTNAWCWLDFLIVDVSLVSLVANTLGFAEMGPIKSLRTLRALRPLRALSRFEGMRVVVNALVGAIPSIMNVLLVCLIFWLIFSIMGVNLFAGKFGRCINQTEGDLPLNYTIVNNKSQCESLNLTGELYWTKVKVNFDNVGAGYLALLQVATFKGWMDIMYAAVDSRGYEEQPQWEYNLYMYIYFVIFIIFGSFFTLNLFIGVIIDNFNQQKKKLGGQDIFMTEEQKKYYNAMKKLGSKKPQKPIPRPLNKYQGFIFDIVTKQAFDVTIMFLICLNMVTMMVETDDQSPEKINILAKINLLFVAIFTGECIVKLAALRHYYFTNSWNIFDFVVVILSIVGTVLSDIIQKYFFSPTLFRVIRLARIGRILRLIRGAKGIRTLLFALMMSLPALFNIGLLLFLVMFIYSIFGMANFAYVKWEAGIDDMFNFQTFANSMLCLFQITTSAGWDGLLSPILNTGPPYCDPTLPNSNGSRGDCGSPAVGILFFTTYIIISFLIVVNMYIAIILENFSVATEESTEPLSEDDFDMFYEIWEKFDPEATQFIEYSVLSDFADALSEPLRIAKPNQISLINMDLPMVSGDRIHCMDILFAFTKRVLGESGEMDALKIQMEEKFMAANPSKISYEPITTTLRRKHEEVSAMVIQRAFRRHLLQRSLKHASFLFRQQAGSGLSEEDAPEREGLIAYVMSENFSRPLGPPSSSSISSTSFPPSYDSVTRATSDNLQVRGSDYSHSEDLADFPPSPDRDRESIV

Turning to `CCCC1=C(C(=O)OCC)C(c2ccc(C(=O)O)cc2)C2=C(CC(C)(C)CC2=O)N1` (stereo not drawn) [PT-133, 4-(3-(ethoxycarbonyl)-7,7-dimethyl-5-oxo-2-propyl-1,4,5,6,7,8-hexahydroquinolin-4-yl)benzoic acid], the inhibition at 10 µM in data set [1] (compound at 10 μM) was -27.5%. The results for the “hERG Patch Clamp hERG % blk” value at hERG potassium channel (1 μM) and on hERG potassium channel (10 μM) were 10.0% and 12.0%, respectively.
Consider `COc1cc(Cl)ccc1COC(=O)C1=C(C)NC2=C(C(=O)CCC2)C1c1c(Cl)cccc1Cl` (stereo not drawn) [PT-303, 4-chloro-2-methoxybenzyl 4-(2,6-dichlorophenyl)-2-methyl-5-oxo-1,4,5,6,7,8-hexahydroquinoline-3-carboxylate], for which the inhibition at 10 µM in data set [1] (compound at 10 μM) was 59.9%. Also, the “hERG Patch Clamp hERG % blk” value at hERG potassium channel (1 μM) came out at 12.0%; at hERG potassium channel (10 μM), 30.5%.
In the case of `CC1=C(C(=O)OCc2ccccc2)C(c2ccc(N(C)C)cc2[N+](=O)[O-])n2nnnc2N1` (stereo not drawn) [PT-409, benzyl 7-(4-(dimethylamino)-2-nitrophenyl)-5-methyl-4,7-dihydrotetrazolo[1,5-a]pyrimidine-6-carboxylate], the inhibition at 10 µM in data set [1] (compound at 10 μM) stood at 43.1%. The “hERG Patch Clamp hERG % blk” value is 27.0% at hERG potassium channel (1 μM) and 78.5% at hERG potassium channel (10 μM).
For `CC1=C(C(=O)OCc2ccccc2)[C@@H](c2ccccc2-c2ccc(Cl)s2)n2nnnc2N1` [PT-237, (R)-benzyl 7-(2-(5-chlorothiophen-2-yl)phenyl)-5-methyl-4,7-dihydrotetrazolo[1,5-a]pyrimidine-6-carboxylate], in data set [1] (compound at 10 μM), the inhibition at 10 µM was determined as 61.5%. For the same compound, the “hERG Patch Clamp hERG % blk” value at hERG potassium channel (1 μM) was determined as 11.5%; at hERG potassium channel (10 μM) it was 22.5%.
As to `CC1=C(C(=O)OCc2ccccc2)C(c2nccs2)n2nnnc2N1` (stereo not drawn) [PT-364, benzyl 5-methyl-7-(thiazol-2-yl)-4,7-dihydrotetrazolo[1,5-a]pyrimidine-6-carboxylate], the inhibition at 10 µM in data set [1] (compound at 10 μM) came out at 25.8%. The “hERG Patch Clamp hERG % blk” value stood at 10.0% at hERG potassium channel (1 μM) and 17.5% on hERG potassium channel (10 μM).
As to `CCOC(=O)C1=C(C)Nc2nnnn2C1c1sc2ccccc2c1C` (stereo not drawn) [PT-018, ethyl 5-methyl-7-(3-methylbenzo[b]thiophen-2-yl)-4,7-dihydrotetrazolo[1,5-a]pyrimidine-6-carboxylate], the inhibition at 10 µM in data set [1] was found to be 36.5%. The entries for the “hERG Patch Clamp hERG % blk” value on hERG potassium channel (1 μM) and on hERG potassium channel (10 μM) were 14.5% and 36.5%, respectively.
Turning to `CCOC(=O)C1=C(C)Nc2c(c(C)nn2C)C1c1cccc2ccccc12` (stereo not drawn) [PT-440, ethyl 1,3,6-trimethyl-4-(naphthalen-1-yl)-4,7-dihydro-1H-pyrazolo[3,4-b]pyridine-5-carboxylate], in data set [1] (compound at 10 μM), the inhibition at 10 µM amounted to 42.8%. For the same compound, the “hERG Patch Clamp hERG % blk” value turned out to be 12.0% on hERG potassium channel (1 μM) and 48.0% on hERG potassium channel (10 μM).
As for `CC1=C(C(=O)OCc2ccc(Cn3cccn3)cc2)C(c2cccs2)n2nnnc2N1` (stereo not drawn) [PT-280, 4-((1H-pyrazol-1-yl)methyl)benzyl 5-methyl-7-(thiophen-2-yl)-4,7-dihydrotetrazolo[1,5-a]pyrimidine-6-carboxylate], in data set [1] (compound at 10 μM), the inhibition at 10 µM turned out to be 45.9%. The “hERG Patch Clamp hERG % blk” value on hERG potassium channel (1 μM) worked out at 11.5%; at hERG potassium channel (10 μM) it was 48.0%.
Consider `CCOC(=O)C1=C(C)Nc2nnnn2C1c1ccccc1-c1cccc(-c2nnn[nH]2)c1` (stereo not drawn) [PT-493, ethyl 7-(3′-(1H-tetrazol-5-yl)biphenyl-2-yl)-5-methyl-4,7-dihydrotetrazolo[1,5-a]pyrimidine-6-carboxylate], for which the inhibition at 10 µM in data set [1] (compound at 10 μM) came out at 0.5%. Also, the “hERG Patch Clamp hERG % blk” value at hERG potassium channel (1 μM) and at hERG potassium channel (10 μM) was 10.0% throughout.
`CC1=C(c2nnc(CCc3ccccc3)o2)C(c2cccc3ccccc23)n2nnnc2N1` (stereo not drawn) [PT-252, 2-(5-methyl-7-(naphthalen-1-yl)-4,7-dihydrotetrazolo[1,5-a]pyrimidin-6-yl)-5-phenethyl-1,3,4-oxadiazole]: the inhibition at 10 µM in data set [1] (compound at 10 μM) turned out to be 70%. The “hERG Patch Clamp hERG % blk” value stood at 10.5% at hERG potassium channel (1 μM) and 78.0% on hERG potassium channel (10 μM).
The like results for `CC1=C(C(=O)OCc2ccccc2)C(c2ccccc2-c2ccc(C(=O)O)cc2)C2=C(CCCC2=O)N1` (stereo not drawn) [PT-249, 2′-(3-(benzyloxycarbonyl)-2-methyl-5-oxo-1,4,5,6,7,8-hexahydroquinolin-4-yl)biphenyl-4-carboxylic acid] were, in that order, 20%, 11.5% and 15.5%.
As to `CC1=C(C(=O)OCc2ccccc2)C(c2ccccc2-c2ccc(C(=O)O)cc2)n2nnnc2N1` (stereo not drawn) [PT-254, 2′-(6-(benzyloxycarbonyl)-5-methyl-4,7-dihydrotetrazolo[1,5-a]pyrimidin-7-yl)biphenyl-4-carboxylic acid], the inhibition at 10 µM in data set [1] (compound at 10 μM) was found to be 10.7%. Besides, the “hERG Patch Clamp hERG % blk” value on hERG potassium channel (1 μM) was found to be 15.0%; on hERG potassium channel (10 μM), 20.0%.
Take “H-furo[3,4-e]pyrazolo[3,4-b]pyridin-5(4H)-one [PT-079]”: the “Late INa % blk” value in data set [1] (compound at 10 μM) is 49.0%. For the same compound, the “hERG Patch Clamp hERG % blk” value at hERG potassium channel (1 μM) stood at 57.5%; on hERG potassium channel (10 μM), 96.5%.
